# In patent publication US9801896B2, “Compositions comprising S-adenosylmethionine and a gallic acid ester” (Methylation Sciences International SRL, priority 2012, dated 2017):
# What was measured:
# [1] = system: Caco-2 cell monolayers; experiment: Permeability of SAMe across Caco-2 cell monolayers with propyl gallate (Example 3)
# Description: The Caco-2 cell line is derived from a human colorectal carcinoma and is widely used for in vitro cell culture models for the study of gastrointestinal drug absorption (Stewart, B., (1995) Pharm. Res. 12:693). In these models, pure cell lines are grown on a semi-permeable membrane. Drug formulations are placed on the apical or basolateral side of the cell monolayer and transport is determined via measurement of drug concentrations on the other side of the membrane.
# The Caco-2 cell line utilized here was from the American Type Culture Collection (ATCC). Caco-2 cells are grown in Dulbecco's modified Eagle's medium (DMEM, Gibco) supplemented with 20% FBS (fetal bovine serum, Gibco), 100 uM non-essential amino acids (NEAA, Gibco) and 2 mM L-glutamine (Gibco). […] The cells used in transport studies were grown for 3 days before the experiments. The culturing conditions were 37° C. in an atmosphere of 5% CO2 and 100% humidity.
# A 2 mM aqueous solution of SAMe disulfate tosylate was added on the apical or basolateral side according to the manufacturer's procedure for the Caco-2 kit.
# The permeability (Papp) of SAMe is calculated using the following formula: […]
# Where dQ/dt is the rate of permeation, C0 is the initial concentration of test agent, and A is the area of the monolayer.
# [2] = Beagle plasma SAMe after tablets of SAMe co-formulated with alkyl gallates (Example 1); assay type: in vivo; conditions: fasted male beagle dogs, single oral enteric coated tablet, 400 mg SAMe ion co-formulated with 25 mg gallic acid ester; FIG. 1; compared with other formulations
# Description: Tablets comprising SAMe and various alkyl gallates of different chemical structure were generated by mixing SAMe with either methyl gallate, ethyl gallate, butyl gallate, isobutyl gallate, isoamyl gallate or octyl gallate (see structures below). Tablets were then administered to Beagle dogs and blood samples were withdrawn over time. Analysis of concentrations of SAMe in plasma was used to compare the effects of these gallic acid esters on the uptake of orally administered SAMe in the blood.
# Tablets were generated by mixing 400 mg SAMe ion (from SAMe disulfate tosylate) with 25 mg gallic acid ester along with excipients (microcrystalline cellulose, sodium starch glycolate, silicon dioxide, and magnesium stearate) to make up the 1025 mg tablet. A commercial seal coat and then a commercial enteric coat was applied to the tablets prior to dissolution testing. Detailed dissolution profiling was performed according to USP standards at either pH 6.8 or 6.0 on each set of tablets to ensure that adequate dissolution was achieved prior to in vivo pharmacokinetic analysis.
# The study protocol was approved by the institution's Animal Care Committee, and all animals were cared for according to regulations proposed by Agriculture Canada and the USDA.
# Ten different formulations were tested in the present study. 400 mg SAMe co-formulated with 25 mg propyl gallate was compared to: SAMe control tablets (i.e., with no propyl gallate); SAMe tablets co-administered with separate 25 mg propyl gallate tablets; a commercially available SAMe product (400 mg); or 400 mg SAMe with 25 mg of either methyl gallate, ethyl gallate, butyl gallate, isobutyl gallate, isoamyl gallate or octyl gallate.
# [3] = PAMPA permeability of SAMe with and without propyl gallate (Example 4); assay type: in vitro ADME; conditions: for Average Effective Permeability: PAMPA, SAMe 2 mM, 5 hr
# Description: Using a PAMPA (parallel artificial membrane permeability assay) model, the permeability of SAMe was measured in the presence and absence of propyl gallate.
# PAMPA methods were used to determine the permeability of substances from a donor compartment, through a lipid-infused artificial membrane into an acceptor compartment. A multi-well microtitre plate was used for the donor and a membrane/acceptor compartment is placed on top. At the beginning of the test, SAMe disulfate tosylate (with or without different concentrations of propyl gallate as indicated in Table 2 below) was added to the donor compartment, and the acceptor compartment remained drug-free. After an incubation period, the compartments were separated and the amount of SAMe was measured in each compartment. Mass balance allows calculation of SAMe that remains in the membrane.
# [4] = Beagle pharmacokinetics of SAMe tablets with various amounts of propyl gallate (Example 6)
# Description: Tablets comprising SAMe and various amounts of propyl gallate were generated by mixing S-adenosyl-L-methionine disulfate tosylate granules (equivalent to 400 mg of SAMe ion) with the various amounts of propyl gallate listed in Table 4 below. Each mixture was pressed into a tablet and coated followed by dissolution profiling and in vivo pharmacokinetic analysis using beagle dogs.
# For in vivo studies, fasted male beagle dogs (7-10 kg) were used as described above. Each group (6 dogs for SAMe/propyl gallate and 6 dogs for the SAMe control lacking propyl gallate) were dosed with a single orally administered enteric coated tablet, under fasted conditions, followed by 5 mL of purified water orally with a syringe to facilitate swallowing. Pharmacokinetic blood samples (2 mL each) for SAMe analysis were collected from the jugular vein using the following time points: pre-dose, 20 and 40 minutes, 1, 1.5, 2, 3, 4, 6, and 8 hours after treatment. The venipuncture blood samples were collected into tubes containing the anticoagulant K2-EDTA, and stored on wet ice pending processing. Following collection, samples were centrifuged (at 4° C.) to separate the plasma fraction from the blood cells. […]
# The concentration of SAMe in dog plasma was determined using the well established LC/MS/MS method. […]
# [5] = Beagle plasma SAMe after capsules of SAMe with gallate-related molecules (Example 2); assay type: in vivo; conditions: beagle dogs, single oral capsule, 100 mg SAMe ion with 100 mg agent; versus BHT, propyl paraben and gallic acid; FIGS. 2A, 2B
# Description: BHT, propyl paraben and propyl gallate are food-grade antioxidants which have often been used in combination. […] The capsules also contained additional excipients (Microcrystalline cellulose, Sodium Starch Glycolate, Colloidal Silicon Dioxide, and Magnesium Stearate). Capsules were manually filled and in some embodiments, a layer of commercial seal coat was applied to the capsules using a fluid bed coater. Beagle dogs were administered a single orally delivered dose as described above.
molecule,measurement,setting,value
S-adenosyl-L-methionine disulfate tosylate [SAMe disulfate tosylate],"apparent permeability coefficient (Papp), apical to basolateral","[1]; Caco-2, apical to basolateral, SAMe salt alone",0.41 ×10⁻⁶ cm/s
same,"apparent permeability coefficient (Papp), basolateral to apical","[1]; Caco-2, basolateral to apical, SAMe salt alone",0.5 ×10⁻⁶ cm/s
CC(C)CCOC(=O)c1cc(O)c(O)c(O)c1 [isoamyl gallate],"maximum SAMe plasma concentration (Cmax), uptake into the plasma",[2],superior uptake into the plasma
CCCCCCCCOC(=O)c1cc(O)c(O)c(O)c1 [octyl gallate],"maximum SAMe plasma concentration (Cmax), uptake into the plasma",[2],superior uptake into the plasma
CCOC(=O)c1cc(O)c(O)c(O)c1 [ethyl gallate],"maximum SAMe plasma concentration (Cmax), uptake into the plasma",[2],superior uptake into the plasma
"C[S+](CC[C@H](N)C(=O)[O-])C[C@H]1O[C@@H](n2cnc3c(N)ncnc32)[C@H](O)[C@@H]1O (stereo partly drawn) [SAMe, S-adenosyl-L-methionine]",Average Effective Permeability,[3]; Propyl Gallate 0 mM,0.0042 ×10⁻⁶ cm/s
same,Average Effective Permeability,[3]; Propyl Gallate 0.2 mM,0.002 ×10⁻⁶ cm/s
same,Average Effective Permeability,[3]; Propyl Gallate 2 mM,0.0048 ×10⁻⁶ cm/s
same,transport of SAMe across the PAMPA membrane,[3]; summary of Table 2,essentially no transport
same,AUC(0-inf.) ± SD,"[4]; beagle, oral tablet, SAMe 400 mg, Propyl Gallate 6.25 mg","21,734 ± 9848^ hr*ng/mL"
CCCOC(=O)c1cc(O)c(O)c(O)c1 [propyl gallate],"maximum SAMe plasma concentration (Cmax), uptake into the plasma",[2],superior uptake into the plasma
same,"plasma SAMe Cmax and AUC, SAMe uptake into the blood",[5],superior and surprising ability
same,effect of propyl gallate on SAMe transport in Caco-2 cells,[1]; summary of Table 1,increases SAMe transport
same,relationship of propyl gallate with SAMe uptake in vivo,"[4]; dog, in vivo",dose-response relationship
CCCCOC(=O)c1cc(O)c(O)c(O)c1 [butyl gallate],"maximum SAMe plasma concentration (Cmax), uptake into the plasma",[2],did not result in pharmacokinetics even close to that of SAMe-propyl gallate formulations
